From US8790934B2, “Nanoparticles” (Consejo Superior de Investigaciones Cientificas, priority 2000, dated 2014)

Experiment: solubility in methanol and water
Format: physicochemical
Conditions: for solubility in methanol: methanol (MeOH)
Experimental: Synthesis of glyconanoparticles: A solution of disulphide 1,2, or 3 (0.012M, 5.5 eq) in MeOH was added to a solution of tetrachloroauric acid (0.025M, 1 eq) in water. NaBH4 (1M, 22 eq) in water was added in small portions with rapid stirring. The black suspension that was formed was stirred for additional 2 hours and the solvent was then removed under vacuum. The crude of the reaction was washed with MeOH and was centrifuged for 10 minutes. The methanol was removed and the process was repeated several times until the starting material was not detected by TLC. The glyco-nanoparticles are completely insoluble in MeOH but quite soluble in water. • They were purified by dialysis: 50 mg of crude product was dissolved in 10 mL of water (NANOpure). This solution was loaded into 10 cm segments of cellulose ester dialysis membrane (SIGMA, MWCO=12400) and placed in 4 L of water (NANOpure). The dark glyconanoparticles solution was collected from the dialysis segments and lyophilized. The products obtained were free of salts and starting material (absence of signals due to disulphide and Na^+ in NMR).
The presentation of the carbohydrate molecules at the nanoparticles surface was then investigated. The molecular properties of the neoglycoconjugates 1, 2 and 3 suffer a differential change after attaching them to the gold surface. […] The Le^x derivative 3 is soluble in methanol and water, its nanoparticle 3-Au, however, is insoluble in methanol and very soluble in water. These differences in solubility can be used to purify the glyconanoparticles from the non-reacted disulfides by washing them with methanol. However, the most significant fact in these changes is that they reveal the influence of clustering at the surface on the carbohydrate presentation to the surrounding.

solubility in methanol | solubility in water | SMILES
soluble | insoluble | OCC1OC(OC2C(CO)OC(OCCCCCCCCCCCSSCCCCCCCCCCCOC3OC(CO)C(OC4OC(CO)C(O)C(O)C4O)C(O)C3O)C(O)C2O)C(O)C(O)C1O (stereo not shown) [Compound 2]
soluble | soluble | CC(=O)N[C@H]1[C@H](OCCCCCCCCCCCSSCCCCCCCCCCCO[C@@H]2O[C@H](CO)[C@@H](O[C@@H]3O[C@H](CO)[C@H](O)[C@H](O)[C@H]3O)[C@H](O[C@@H]3O[C@@H](C)[C@@H](O)[C@@H](O)[C@@H]3O)[C@H]2NC(C)=O)O[C@H](CO)[C@@H](O[C@@H]2O[C@H](CO)[C@H](O)[C@H](O)[C@H]2O)[C@@H]1O[C@@H]1O[C@@H](C)[C@@H](O)[C@@H](O)[C@@H]1O [Compound 3]
